Measured values as given in patent publication US20240108641A1, “COMPOSITIONS FOR ORAL ADMINISTRATION OF ZOLEDRONIC ACID OR RELATED COMPOUNDS FOR TREATING DISEASE” (ANTECIP BIOVENTURES II LLC, priority 2012, published 2024).

Tests used:
[1] = test system: knee bone marrow lesions (BML); experiment: clinical study in knee osteoarthritis with bone marrow lesions, BML size on MRI; format: in vivo, human; settings: 5 mg intravenous; for average BML area decreased as compared to placebo: 6 months; for Change in BML Size / Change in BML Size, Difference from Placebo: baseline to 6 months
From the text: (§1) Some embodiments related to joint pain, bone marrow lesions, and osteoarthritis were conceived as a result of analyzing data from a clinical study. Some of the results of this study were reported by Laslett et al. in Ann Rheum Dis 2012; 71:1322-1328. Some of the description and data reported below was not published prior to filing the present application. Fifty-two (52) patients with clinical knee osteoarthritis and knee bone marrow lesions (BML) were randomized to receive either intravenous zoledronic acid (5 mg) or placebo in a double blind fashion. All patients had to have at least one bone marrow lesion (BML) in the affected knee on magnetic resonance imaging (MRI). All patients had x-ray of the knee for determination of joint space narrowing (JSN), which was graded according to the Osteoarthritis Research Society International (OARSI) atlas. Patients had either no joint space narrowing (OARSI Grade 0), or greater degrees of joint space narrowing (OARSI Grade 1 and Grade 2). Twenty six patients were treated with zoledronic acid (8, 6, and 12 with OARSI Grades 0, 1, and 2, respectively). Twenty six patients received placebo (8, 8, and 10 with OARSI Grades 0, 1 and 2, respectively).
BMLs were evaluated using proton density-weighted fat saturation MR images. BMLs were scored using Osiris software (University of Geneva, Geneva, Switzerland). The maximum size was measured in mm^2 using software cursors applied to the greatest area of each lesion. The lesion with the highest score was used if more than one was present at the same site. Each patient was given a BML score (mm^2) at each of the four sites (medial tibial, medial femoral, lateral tibial, and lateral femoral sites) and these were summed to create a total BML score (mm^2). The change in the total area of BMLs from baseline to 6 months was calculated.

[2] = test system: knee pain (knee osteoarthritis and knee bone marrow lesions); experiment: clinical study in knee osteoarthritis with bone marrow lesions, VAS pain; format: in vivo, human; settings: 5 mg intravenous; for average VAS scores decreased from baseline: 3 months; for average VAS scores reduced as compared to placebo: three months
From the text: as §1
Pain intensity was assessed at baseline and at three months, using a 100 mm visual analog scale (VAS), with zero representing no pain and 100 representing extreme pain. The change in pain intensity from baseline to 3 months was calculated.

[3] = test system: complex regional pain syndrome (CRPS); experiment: rat tibia fracture model of complex regional pain syndrome, dosing from day of fracture; format: in vivo
Description: The effect of orally administered zoledronic acid was examined in the rat tibia fracture model of complex regional pain syndrome (CRPS). CRPS was induced in the rats by fracturing the right distal tibias of the animals and casting the fractured hindpaws for 4 weeks, as described in Guo T Z et al. (Pain. 2004; 108: 95-107).
Animals were orally administered either vehicle (control) or zoledronic acid, in a dosage of 18 mg/m^2/day (3 mg/kg/day) for 28 days, starting on the day of fracture and casting. Drug was dissolved in distilled water and administered by gavage. Animals were fasted for 4 hours before and 2 hours after dosing. At the end of the 28-day period, casts were removed, and on the following day, the rats were tested for hindpaw pain, edema, and warmth.
Pain was assessed by measuring hyperalgesia, and weight bearing.
To measure hyperalgesia, an up-down von Frey testing paradigm was used. Rats were placed in a clear plastic cylinder (20 cm in diameter) with a wire mesh bottom and allowed to acclimate for 15 minutes. The paw was tested with one of a series of eight von Frey hairs ranging in stiffness from 0.41 g to 15.14 g. The von Frey hair was applied against the hindpaw plantar skin at approximately midsole, taking care to avoid the tori pads. The fiber was pushed until it slightly bowed and then it was jiggled in that position for 6 seconds. Stimuli were presented at an interval of several seconds. Hindpaw withdrawal from the fiber was considered a positive response. […]
An incapacitance device (IITC Inc. Life Science, Woodland, CA, USA) was used to measure hindpaw weight bearing, a postural effect of pain. […] Eight readings (excluding the highest and lowest ones) were averaged to calculate the bilateral hindpaw weight-bearing values. Weight bearing data were analyzed as the ratio between right (fracture) and left hindpaw weight bearing values ((2R/(R+L))×100%). […]
The temperature of the hindpaw was measured using a fine wire thermocouple (Omega, Stanford, CT, USA) applied to the paw skin. […]

[4] = 18 mg/m^2/day oral for 28 days from fracture

## O=P(O)(O)C(O)(Cn1ccnc1)P(=O)(O)O [zoledronic acid]
[1]; OARSI Grade 0
  average BML area decreased as compared to placebo: approximately 190 mm^2
  Change in BML Size: −244 mm^2
  Change in BML Size, Difference from Placebo: −190 mm^2
[1]; OARSI Grades 1-2
  average BML area decreased as compared to placebo: approximately 33 mm^2
  Change in BML Size: −117 mm^2
  Change in BML Size, Difference from Placebo: −33 mm^2
[2]; OARSI Grade 0
  average VAS scores decreased from baseline: approximately 25 mm
  Change in VAS Pain Scores at Three Months: −24.6 mm
  Change in VAS Pain Scores at Three Months, Difference from Placebo: −15.0 mm
  average VAS scores reduced as compared to placebo: 15 mm
[2]; OARSI Grade 1
  average VAS scores decreased from baseline: ~21 mm
[2]; OARSI Grade 2
  average VAS scores decreased from baseline: 9 mm
[2]; All patients
  Pain Reduction Compared to Placebo at Three Months, VAS Change: −4.8 mm
[2]; Baseline VAS < 50 mm
  Change in VAS Pain Scores at Three Months: −7.3 mm
  Change in VAS Pain Scores at Three Months, Difference from Placebo: −0.6 mm
[2]; Baseline VAS ≥ 50 mm
  Change in VAS Pain Scores at Three Months: −26.2 mm
  Change in VAS Pain Scores at Three Months, Difference from Placebo: −9.0 mm
[2]; Baseline VAS ≥ 50 mm + OARSI Grade 0
  Pain Reduction Compared to Placebo at Three Months, VAS Change: −19.4 mm
[2]; OARSI Grades 1-2
  Change in VAS Pain Scores at Three Months: −13.2 mm
  Change in VAS Pain Scores at Three Months, Difference from Placebo: −0.28 mm
  average VAS scores reduced as compared to placebo: 0.28
[2]; baseline VAS 50 mm
  average VAS scores reduced as compared to placebo: 9 mm
[2]; baseline VAS<50 mm
  average VAS scores reduced as compared to placebo: 0.6
[3]; 18 mg/m^2/day (3 mg/kg/day) oral for 28 days from fracture
  overall effect compared to vehicle treated animals: reversed pain, restored weight bearing, and prevented edema
[3]; [4]
  hindlimb weight bearing: 86 % of normal
  reversal of fracture induced pain (von Frey) as compared to vehicle: 77%
